From ChEMBL document CHEMBL1201862, “PubChem BioAssay data set” (2004)
Counter-ions that a name gives are not always drawn.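 In this assay, cells in 96-well plates receive the compound at five concentrations for 48 hours. Endpoints are linearly interpolated between the surrounding concentrations. GI50 = concentration required for 50% inhibition of growth.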 Activity calls are given as the source filed them. Rule as the data show it: active = GI50 up to about 1.1 µM and inactive = higher. Where a SMILES comes first, the peptide text is derived from it.

Columns and labels:
Test in all cases: NCI tumour cell line growth inhibition, 48 h
786-0 = tested on: 786-0
CCRF-CEM = tested on: CCRF-CEM
EKVX = tested on: EKVX
HCT-116 = tested on: HCT-116
HCT-15 = tested on: HCT-15
HOP-62 = tested on: HOP-62
HT-29 = tested on: HT-29
KM-20L2 = tested on: KM-20L2
LOX IMVI = tested on: LOX IMVI
OVCAR-5 = tested on: OVCAR-5
OVCAR-8 = tested on: OVCAR-8
RXF 393 = tested on: RXF 393
SF-268 = tested on: SF-268
SF-295 = tested on: SF-295
SK-OV-3 = tested on: SK-OV-3
UACC-257 = tested on: UACC-257
UO-31 = tested on: UO-31
NCI-H226 = tested on: NCI-H226
MDA-MB-435 = tested on: MDA-MB-435
NCI/ADR-RES = tested on: NCI/ADR-RES

Compound	GI50 (786-0)	GI50 (CCRF-CEM)	GI50 (EKVX)	GI50 (HCT-116)	GI50 (HCT-15)	GI50 (HOP-62)	GI50 (HT-29)	GI50 (KM-20L2)	GI50 (LOX IMVI)	GI50 (OVCAR-5)	GI50 (OVCAR-8)	GI50 (RXF 393)	GI50 (SF-268)	GI50 (SF-295)	GI50 (SK-OV-3)	GI50 (UACC-257)	GI50 (UO-31)	GI50 (NCI-H226)	GI50 (MDA-MB-435)	GI50 (NCI/ADR-RES)
COc1ccc(N/N=C(\CCN(C)C)c2ccccc2)cc1	3.4 µM (inactive)	1.41 µM (inactive)	2.2 µM (inactive)	3.56 µM (inactive)	1.15 µM	2.1 µM (inactive)	6.85 µM (inactive)	0.489 µM (active)	2.07 µM (inactive)	9.57 µM (inactive)	12.8 µM (inactive)	15.7 µM (inactive)	1.62 µM (inactive)	0.437 µM (active)	3.41 µM (inactive)	3.78 µM (inactive)	1.37 µM (inactive)			
CC(C)(C)c1cc(COc2c3sc(=S)sc3c(OCc3cc(C(C)(C)C)cc(C(C)(C)C)c3)c3sc(=S)sc23)cc(C(C)(C)C)c1	> 100 µM (inactive)	> 100 µM (inactive)	> 100 µM (inactive)	> 100 µM (inactive)	> 100 µM	> 100 µM (inactive)	> 100 µM (inactive)	> 100 µM (inactive)	> 100 µM (inactive)		> 100 µM (inactive)	> 100 µM (inactive)		> 100 µM (inactive)	> 100 µM (inactive)	> 100 µM (inactive)				
CCOC(=O)C1(Br)C(c2ccccc2)NC(=O)N(C2OC(COC(=O)c3ccccc3)C(OC(=O)c3ccccc3)C2OC(=O)c2ccccc2)C1(C)Br (stereo not drawn)	12.9 µM (inactive)	3.15 µM (inactive)	36.7 µM (inactive)	18.2 µM (inactive)	15.8 µM	38.9 µM (inactive)	18.2 µM (inactive)	37.9 µM (inactive)	21.8 µM (inactive)		17.3 µM (inactive)	14.5 µM (inactive)	> 55.5 µM (inactive)	33.3 µM (inactive)	42.9 µM (inactive)	18.6 µM (inactive)	25.9 µM (inactive)			
COc1nc(NC2OCC(O)C(O)C2O)c(NC2OCC(O)C(O)C2O)c(=O)n1C (stereo not drawn)	> 100 µM (inactive)	> 100 µM (inactive)	> 100 µM (inactive)	> 100 µM (inactive)	> 100 µM	> 100 µM (inactive)	> 100 µM (inactive)	> 100 µM (inactive)	> 100 µM (inactive)		> 100 µM (inactive)	> 100 µM (inactive)	> 100 µM (inactive)	> 100 µM (inactive)	> 100 µM (inactive)	> 100 µM (inactive)	> 100 µM (inactive)	89.7 µM (inactive)		
NCC(=O)OCN1C(=O)C2C3C=CC(C2C1=O)C1C2C(=O)N(COC(=O)CN)C(=O)C2C31 (stereo not drawn)	22.8 µM (inactive)	22.9 µM (inactive)		16.9 µM (inactive)	19.1 µM	> 100 µM (inactive)	40.6 µM (inactive)	24.3 µM (inactive)	20 µM (inactive)		20.7 µM (inactive)	20.6 µM (inactive)	20.9 µM (inactive)	> 100 µM (inactive)	76.9 µM (inactive)	36.3 µM (inactive)	31.9 µM (inactive)	50.5 µM (inactive)		
COc1ccc(NC(=S)N/N=C(\c2ccccc2)c2ccccn2)cc1	< 0.0267 µM (active)	0.01 µM (active)	< 0.0543 µM (active)	< 0.01 µM (active)	< 0.01 µM	0.06 µM (active)	< 0.0118 µM (active)		< 0.0152 µM (active)	0.0241 µM (active)	0.0218 µM (active)	0.603 µM (active)	0.123 µM (active)	0.121 µM (active)	0.028 µM (active)	< 0.01 µM (active)	0.132 µM (active)	0.0753 µM (active)	1.96 µM (inactive)	< 0.0904 µM (active)
CC(C)OP(=O)(OC(C)C)/C(=N/Nc1ccc([N+](=O)[O-])cc1)NCCN/C(=N\Nc1ccc([N+](=O)[O-])cc1)P(=O)(OC(C)C)OC(C)C	9.86 µM (inactive)	2.84 µM (inactive)	4.54 µM (inactive)	3.48 µM (inactive)	4.61 µM	6.01 µM (inactive)		4.52 µM (inactive)	8.89 µM (inactive)	31.6 µM (inactive)	4.55 µM (inactive)		> 100 µM (inactive)			6.61 µM (inactive)	4.4 µM (inactive)	3.94 µM (inactive)		
N#CC1(c2nc3ccccc3o2)C(=O)C(=O)N(c2ccc(Cl)c(Cl)c2)C(=O)C1=O	> 100 µM (inactive)	48 µM (inactive)	> 100 µM (inactive)		74.6 µM	> 100 µM (inactive)	> 100 µM (inactive)	> 100 µM (inactive)	> 100 µM (inactive)	> 100 µM (inactive)	> 100 µM (inactive)	> 100 µM (inactive)	> 100 µM (inactive)	> 100 µM (inactive)		> 100 µM (inactive)	> 100 µM (inactive)	> 100 µM (inactive)		
COCN(C)c1nc(N(C)C)nc(N(C)C)n1	> 100 µM (inactive)	> 100 µM (inactive)	> 100 µM (inactive)	> 100 µM (inactive)	> 100 µM	> 100 µM (inactive)	> 100 µM (inactive)	> 100 µM (inactive)	> 100 µM (inactive)	> 100 µM (inactive)	> 100 µM (inactive)	40.3 µM (inactive)	> 100 µM (inactive)	> 100 µM (inactive)	> 100 µM (inactive)	> 100 µM (inactive)	> 100 µM (inactive)			
COC(=O)C(Cc1nc2ccccc2nc1O)C(=O)C(=O)Nc1ccc(OC)cc1[N+](=O)[O-] (stereo not drawn)	> 100 µM (inactive)	> 100 µM (inactive)	> 100 µM (inactive)	> 100 µM (inactive)	> 100 µM	> 100 µM (inactive)	82.8 µM (inactive)	> 100 µM (inactive)	> 100 µM (inactive)	> 100 µM (inactive)	> 100 µM (inactive)		> 100 µM (inactive)	> 100 µM (inactive)	> 100 µM (inactive)	> 100 µM (inactive)	> 100 µM (inactive)	> 100 µM (inactive)		
Cc1ccc(NC(=O)C(=O)C(C#N)c2nc(-c3ccc(-c4ccccc4)cc3)cs2)c(C)c1 (stereo not drawn)	> 100 µM (inactive)		> 100 µM (inactive)	> 100 µM (inactive)	> 100 µM	> 100 µM (inactive)		> 100 µM (inactive)	> 100 µM (inactive)	> 100 µM (inactive)	> 100 µM (inactive)	> 100 µM (inactive)	> 100 µM (inactive)	> 100 µM (inactive)	> 100 µM (inactive)	58.7 µM (inactive)	> 100 µM (inactive)	> 100 µM (inactive)		
Cc1ccc(NC(=O)CC(=O)N2N=C(N(CCC#N)c3cccc(C)c3)CC2c2ccccc2)cc1 (stereo not drawn)	> 100 µM (inactive)	> 100 µM (inactive)	5.97 µM (inactive)	> 100 µM (inactive)	> 100 µM	> 100 µM (inactive)	> 100 µM (inactive)	> 100 µM (inactive)		> 100 µM (inactive)	> 100 µM (inactive)	> 100 µM (inactive)	> 100 µM (inactive)	> 100 µM (inactive)	> 100 µM (inactive)	> 100 µM (inactive)	> 100 µM (inactive)	> 100 µM (inactive)		
CC(=O)NC(CS)C(=O)NC(CO)C(=O)NC(CO)C(=O)NC(Cc1c[nH]c2ccccc12)C(=O)N1CCCC1C(=O)NC(CO)C(=O)NC(Cc1c[nH]c2ccccc12)C(=O)NC(Cc1c[nH]cn1)C(=O)NC(CO)C(=O)NC(Cc1c[nH]c2ccccc12)C(=O)NCC(=O)NCC(=O)NC(CC(=O)O)C(=O)NC(CCC(N)=O)C(=O)NC(CCCCN)C(=O)NC(Cc1ccccc1)C(=O)NC(CCCNC(=N)N)C(=O)NC(CCCCN)C(N)=O (stereo not drawn) (Ac-CSSWPSWHSWGGDQKFRK-NH2; configuration not given here)	> 25 µM (inactive)	> 25 µM (inactive)	> 25 µM (inactive)	> 25 µM (inactive)	> 25 µM	> 25 µM (inactive)	> 25 µM (inactive)		> 25 µM (inactive)	> 25 µM (inactive)	> 25 µM (inactive)	> 25 µM (inactive)	> 25 µM (inactive)	> 25 µM (inactive)	> 25 µM (inactive)	> 25 µM (inactive)	> 25 µM (inactive)	> 25 µM (inactive)	> 25 µM (inactive)	> 25 µM (inactive)
CN1[C@@H]2CC[C@H]1C[C@@H](OC(c1ccccc1)c1ccccc1)C2 [BENZTROPINE MESYLATE]	14 µM (inactive)	14 µM (inactive)	31.6 µM (inactive)	12.6 µM (inactive)	22.5 µM	15.6 µM (inactive)	11 µM (inactive)		16 µM (inactive)	18.4 µM (inactive)	16.4 µM (inactive)	15.5 µM (inactive)	18.5 µM (inactive)	11.4 µM (inactive)	17.9 µM (inactive)	13.7 µM (inactive)	15.3 µM (inactive)	27.5 µM (inactive)	13.9 µM (inactive)	16.2 µM (inactive)
CN(Cc1ccccc1)C(=S)S [SODIUM BENZYL(METHYL)CARBAMODITHIOATE]	19.2 µM (inactive)	16.5 µM (inactive)	47 µM (inactive)	19.2 µM (inactive)	34 µM	43.2 µM (inactive)	37.5 µM (inactive)		27.9 µM (inactive)	35.9 µM (inactive)	33 µM (inactive)	54.5 µM (inactive)	53.3 µM (inactive)	34 µM (inactive)	> 100 µM (inactive)	53.2 µM (inactive)	27.2 µM (inactive)	98.6 µM (inactive)	43.2 µM (inactive)	38.1 µM (inactive)
